Results as given in PubChem BioAssay AID248 (DTP/NCI, 2004).
Toxic doses and inconclusive results are not listed. Cut-off read from the data, not from the text of the source: active = T/C of 150% or more; inactive = T/C below 125%.

Tested on: L1210 leukemia ip in BDF1 mice, survival T/C
Assay: NCI In Vivo Anticancer Drug Screen. Data for tumor model L1210 Leukemia (intraperitoneal) in B6D2F1 (BDF1) mice
Conditions: endpoint: mean survival time, higher = longer survival
Method in brief: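 Antitumor effect is assessed in tumor-bearing animals. Survival in the compound arm is compared with a vehicle-dosed control arm and expressed as their quotient.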

[1] = dose: 50.0 mg/kg/injection, schedule: Q01DX009 (ip), vehicle: saline with Tween-80
[2] = dose: 100.0 mg/kg/injection, schedule: Q01DX001 (ip), vehicle: saline
[3] = dose: 200.0 mg/kg/injection, schedule: Q01DX001 (ip), vehicle: saline
[4] = dose: 400.0 mg/kg/injection, schedule: Q01DX001 (ip), vehicle: saline
[5] = dose: 100.0 mg/kg/injection, schedule: Q01DX009 (ip), vehicle: saline with Tween-80
[6] = dose: 100.0 mg/kg/injection, schedule: Q04DX003 (ip), vehicle: saline with Tween-80
[7] = dose: 200.0 mg/kg/injection, schedule: Q04DX003 (ip), vehicle: saline with Tween-80
[8] = dose: 100.0 mg/kg/injection, schedule: Q01DX009 (ip), vehicle: saline
[9] = dose: 100.0 mg/kg/injection, schedule: Q04DX003 (ip), vehicle: saline
[10] = dose: 200.0 mg/kg/injection, schedule: Q01DX009 (ip), vehicle: saline
[11] = dose: 200.0 mg/kg/injection, schedule: Q04DX003 (ip), vehicle: saline
[12] = dose: 400.0 mg/kg/injection, schedule: Q04DX003 (ip), vehicle: saline
[13] = dose: 50.0 mg/kg/injection, schedule: Q04DX003 (ip), vehicle: saline

Measured: T/C

NC1=CCNC(=O)N1c1ccccc1
inactive: dose: 100.0 mg/kg/injection, schedule: Q01DX Z (ip), vehicle: methylcellulose (MC) 105 % of control

COc1ccc(/C=C2\N=C(c3ccc([N+](=O)[O-])cc3)OC2=O)cc1Br
inactive: dose: 100.0 mg/kg/injection, schedule: Q04DX002 (ip), vehicle: saline 101 % of control | dose: 200.0 mg/kg/injection, schedule: Q04DX002 (ip), vehicle: saline 104 % of control | dose: 400.0 mg/kg/injection, schedule: Q04DX002 (ip), vehicle: saline 115 % of control

ClCC1COCO1 (stereo unspecified)
inactive: dose: 12.5 mg/kg/injection, schedule: Q01DX009 (ip), vehicle: saline with Tween-80 107 % of control | dose: 25.0 mg/kg/injection, schedule: Q01DX009 (ip), vehicle: saline with Tween-80 102 % of control | [1] 106 % of control

CC(=Nc1cccnc1)c1ccccc1
inactive: dose: 15.0 mg/kg/injection, schedule: Q01DX001 (ip), vehicle: carboxymethylcellulose (CMC) 98 % of control | dose: 30.0 mg/kg/injection, schedule: Q01DX001 (ip), vehicle: carboxymethylcellulose (CMC) 97 % of control

CC(C)COC(=O)Cc1cccc2ccccc12
inactive: dose: 222.0 mg/kg/injection, schedule: Q01DX Z (ip), vehicle: saline 96 % of control | dose: 333.0 mg/kg/injection, schedule: Q01DX Z (ip), vehicle: saline 96 % of control | dose: 500.0 mg/kg/injection, schedule: Q01DX Z (ip), vehicle: saline 94 % of control

c1ccc(C2OCCOC2c2ccccc2)cc1 (stereo unspecified)
inactive: dose: 100.0 mg/kg/injection, schedule: Q01DX001 (ip), vehicle: carboxymethylcellulose (CMC) 101 % of control | dose: 200.0 mg/kg/injection, schedule: Q01DX001 (ip), vehicle: carboxymethylcellulose (CMC) 103 % of control | dose: 400.0 mg/kg/injection, schedule: Q01DX001 (ip), vehicle: carboxymethylcellulose (CMC) 101 % of control

C1CCC2C3CCC(C3)C2CC1 (stereo unspecified)
inactive: dose: 100.0 mg/kg/injection, schedule: Q04DX002 (ip), vehicle: other 122 % of control | dose: 200.0 mg/kg/injection, schedule: Q04DX002 (ip), vehicle: other 92 % of control | dose: 400.0 mg/kg/injection, schedule: Q04DX002 (ip), vehicle: other 88 % of control

c1ccc([B-](c2ccccc2)(c2ccccc2)[C+]2CCCCC2)cc1 (tested in a mixture with another compound)
inactive: [2] 105 % of control | [3] 108 % of control | [4] 108 % of control

CN(C)CCCNc1cc2c3ccccc3ncc2c2ccccc12
inactive: [5] 98 % of control | [6] 108 % of control | dose: 200.0 mg/kg/injection, schedule: Q01DX009 (ip), vehicle: saline with Tween-80 93 % of control | [7] 113 % of control | dose: 400.0 mg/kg/injection, schedule: Q01DX009 (ip), vehicle: saline with Tween-80 108 % of control | dose: 400.0 mg/kg/injection, schedule: Q04DX003 (ip), vehicle: saline with Tween-80 101 % of control

CCC1=C(c2ccc(OC)cc2)C(C)Oc2cc(OC(C)=O)ccc21 (stereo unspecified)
inactive: dose: 50.0 mg/kg/injection, schedule: Q01DX001 (sc), vehicle: steriod suspending solution 101 % of control | dose: 100.0 mg/kg/injection, schedule: Q01DX001 (sc), vehicle: steriod suspending solution 101 % of control | dose: 200.0 mg/kg/injection, schedule: Q01DX001 (sc), vehicle: steriod suspending solution 97 % of control | dose: 400.0 mg/kg/injection, schedule: Q01DX001 (sc), vehicle: steriod suspending solution 103 % of control

COc1ccc(C(=NO)c2ccc(OC)cc2)cc1
inactive: [8] 102 % of control | [9] 104 % of control | [10] 102 % of control | [11] 93 % of control | dose: 400.0 mg/kg/injection, schedule: Q01DX009 (ip), vehicle: saline 107 % of control | [12] 95 % of control

Oc1c(O)c(Cl)c(Cl)c(Cl)c1Cl
inactive: dose: 12.5 mg/kg/injection, schedule: Q04DX003 (ip), vehicle: saline 97 % of control | dose: 25.0 mg/kg/injection, schedule: Q04DX003 (ip), vehicle: saline 95 % of control | [13] 98 % of control

CCOC(=O)Cc1c(C(=O)OCC)nnn1-c1ccc([N+](=O)[O-])cc1
inactive: dose: 100.0 mg/kg/injection, schedule: Q04DX002 (ip), vehicle: Klucel (hydroxypropylcellulose) (HPC) 97 % of control | dose: 200.0 mg/kg/injection, schedule: Q04DX002 (ip), vehicle: Klucel (hydroxypropylcellulose) (HPC) 97 % of control | dose: 400.0 mg/kg/injection, schedule: Q04DX002 (ip), vehicle: Klucel (hydroxypropylcellulose) (HPC) 93 % of control

O=C(O)c1cc(Br)c(Br)s1
inactive: [1] 98 % of control | [5] 105 % of control

CCN(CC)CCOC(=O)Nc1ccccc1
inactive: [13] 98 % of control | [9] 90 % of control

NC(N)=Nc1ccc(C(=O)Nc2ccc([N+](=O)[O-])cc2)cc1
inactive: dose: 50.0 mg/kg/injection, schedule: Q01DX009 (ip), vehicle: saline 101 % of control | [8] 94 % of control | [9] 95 % of control | [10] 90 % of control | [11] 101 % of control | [12] 97 % of control

O=C(NCCBr)Nc1ccc2c(c1)OCO2
inactive: dose: 100.0 mg/kg/injection, schedule: Q01DX009 (ip), vehicle: Klucel (hydroxypropylcellulose) (HPC) 94 % of control | dose: 100.0 mg/kg/injection, schedule: Q04DX003 (ip), vehicle: Klucel (hydroxypropylcellulose) (HPC) 111 % of control | dose: 200.0 mg/kg/injection, schedule: Q01DX009 (ip), vehicle: Klucel (hydroxypropylcellulose) (HPC) 102 % of control | dose: 200.0 mg/kg/injection, schedule: Q04DX003 (ip), vehicle: Klucel (hydroxypropylcellulose) (HPC) 101 % of control | dose: 400.0 mg/kg/injection, schedule: Q01DX009 (ip), vehicle: Klucel (hydroxypropylcellulose) (HPC) 96 % of control | dose: 400.0 mg/kg/injection, schedule: Q04DX003 (ip), vehicle: Klucel (hydroxypropylcellulose) (HPC) 108 % of control

CCCOP(=O)(OCCC)C(OC(=O)C(C)C)=C(C)C
inactive: [6] 97 % of control | [7] 94 % of control

NNC(=O)NC(=O)NN
inactive: dose: 9.61 mg/kg/injection, schedule: Q01DX Z (ip), vehicle: carboxymethylcellulose (CMC) 103 % of control | dose: 19.23 mg/kg/injection, schedule: Q01DX Z (ip), vehicle: carboxymethylcellulose (CMC) 90 % of control | dose: 38.45 mg/kg/injection, schedule: Q01DX Z (ip), vehicle: carboxymethylcellulose (CMC) 95 % of control | dose: 76.9 mg/kg/injection, schedule: Q01DX Z (ip), vehicle: carboxymethylcellulose (CMC) 116 % of control | [2] 103 % of control | [3] 108 % of control

CCOCCOC(=O)c1ccc(C(N)=NC)cc1
inactive: [2] 91 % of control | [3] 94 % of control | [4] 94 % of control

c1ccc2c(c1)Sc1ccccc1N2C[C@H]1CCCN2CCCC[C@H]12
inactive: dose: 75.0 mg/kg/injection, schedule: Q01DX009 (ip), vehicle: Klucel (hydroxypropylcellulose) (HPC) 102 % of control | dose: 75.0 mg/kg/injection, schedule: Q04DX003 (ip), vehicle: Klucel (hydroxypropylcellulose) (HPC) 102 % of control | dose: 150.0 mg/kg/injection, schedule: Q01DX009 (ip), vehicle: Klucel (hydroxypropylcellulose) (HPC) 91 % of control | dose: 150.0 mg/kg/injection, schedule: Q04DX003 (ip), vehicle: Klucel (hydroxypropylcellulose) (HPC) 97 % of control | dose: 300.0 mg/kg/injection, schedule: Q01DX009 (ip), vehicle: Klucel (hydroxypropylcellulose) (HPC) 89 % of control | dose: 300.0 mg/kg/injection, schedule: Q04DX003 (ip), vehicle: Klucel (hydroxypropylcellulose) (HPC) 102 % of control
